In the NIST ThermoML archive (doi:10.1021/je300953u):
± gives the expanded uncertainty stated by the source.

Assay: mn = molality of the nth substance listed, in mol/kg
Conditions: 101 kPa, Liquid, Vibrating tube method

Question: What does the source list for `CCn1cc[n+](C)c1.[Br-]` [1-ethyl-3-methylimidazolium bromide] + O?
Answer: mass density (298.15 K, m1 = 0.025): 998.38 ± 0.29 kg/m3; mass density (298.15 K, m1 = 0.055): 999.96 ± 0.29 kg/m3; mass density (308.15 K, m1 = 0.025): 995.33 ± 0.29 kg/m3; mass density (308.15 K, m1 = 0.055): 996.89 ± 0.29 kg/m3
